From the NIST ThermoML archive (doi:10.1021/je9005689) come the findings set out here.

Structures are written as SMILES. ± gives the expanded uncertainty stated by the source.

The conditions of data set [1]: Crystal; DTA.
The nature of data set [2]: Molar enthalpy of transition or fusion. To be noted: Crystal; DSC.

Consider `COc1cnc(Cl)nc1Cl` [2,4-dichloro-5-methoxypyrimidine], for which the Normal melting temperature in data set [1] stood at 69.00 ± 0.5 °C. Moreover, the “Molar enthalpy of transition or fusion” value in data set [2] stood at 4.22 ± 0.1 kcal/mol.
